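Compound exposure: 48 hours, 5 concentrations, 96-well plates. At the GI50, growth is halved.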 Calls of active or inactive are those of the source. Cut-off read from the data, not from the text of the source: active = GI50 up to about 1.1 µM and inactive = higher.
What was measured:
Test in all cases: DTP human tumour cell line panel, 48 h
[1] = test system: ACHN
[2] = test system: OVCAR-3
[3] = test system: PC-3
[4] = test system: SN12C
[5] = test system: SNB-19
[6] = test system: UO-31
[7] = test system: Hs-578T
[8] = test system: IGROV-1
[9] = test system: HOP-92
[10] = test system: Malme-3M
[11] = test system: NCI/ADR-RES
[12] = test system: SK-MEL-5
[13] = test system: UACC-257
[14] = test system: U-251
[15] = test system: CAKI-1
[16] = test system: HCC 2998
[17] = test system: OVCAR-4
[18] = test system: SNB-75

Measured: GI50

Oc1ccccc1/C=N/N1C(=S)N(C23CC4CC(CC(C4)C2)C3)C(=N\c2ccccc2)/C1=N/c1ccccc1
inactive: [1] 50 µM | [2] > 100 µM | [3] 8.38 µM | [4] > 100 µM | [5] 77.4 µM | [6] > 100 µM | [7] > 100 µM | [8] > 100 µM | [9] 29.7 µM | [10] > 100 µM | [11] > 100 µM | [12] 23.4 µM | [13] > 100 µM | [14] 76.6 µM | [15] > 100 µM | [16] > 100 µM

C=C1C(=O)O[C@H]2[C@H]3O[C@@H](C[C@@H]12)[C@](C)(O)CCCC(C)=CCC[C@H]3C
inactive: [1] 10.1 µM | [2] 13.9 µM | [3] 12.2 µM | [4] 11.9 µM | [17] 16.1 µM | [5] 16.9 µM | [6] 11.4 µM | [7] 3.9 µM | [8] 1.67 µM | [9] 1.34 µM | [11] 8.2 µM | [12] 10.8 µM | [18] 10.5 µM | [13] 10.3 µM | [14] 14 µM | [15] 10.8 µM | [16] 11.1 µM

C=CC(C)(C)c1cc([C@@H]2COc3cc(O)ccc3C2=O)c(O)c(O)c1OC
inactive: [1] 17.6 µM | [2] 15.8 µM | [3] 18.7 µM | [4] 17.6 µM | [17] 16.9 µM | [5] 23.5 µM | [6] 15.9 µM | [7] 39 µM | [9] 18.8 µM | [10] 30.5 µM | [11] 24.8 µM | [12] 19.7 µM | [18] 27.4 µM | [13] 61.7 µM | [14] 20.2 µM | [15] 13.2 µM | [16] 61.8 µM

O=C1CCC2(c3ccc(Cl)cc3)Nc3ncncc3N12 (stereo unspecified)
inactive: [1] > 10 µM | [2] > 10 µM | [3] > 10 µM | [4] > 10 µM | [17] > 10 µM | [5] > 10 µM | [6] > 10 µM | [7] > 10 µM | [8] > 10 µM | [9] > 10 µM | [10] > 10 µM | [11] > 10 µM | [18] > 10 µM | [13] > 10 µM | [14] > 10 µM | [16] > 10 µM

Source: ChEMBL document CHEMBL1201862, “PubChem BioAssay data set” (2004)
